Where two headings read alike, the source gives them in different places.
Key:
human recombinant WT BTK = human recombinant WT BTK (Homo sapiens, UniProt Q06187); assay: Caliper-based biochemical enzymatic assay (IC50) against WT BTK; settings: WT BTK 0.5 nM, ATP 16 μM, peptide substrate 1 μM, room temperature 3 h
Description: The reaction was then terminated with EDTA, final concentration 20 mM and the phosphorylated reaction product was quantified on a Caliper Desktop Profiler (Caliper LabChip 3000). Percent inhibition was calculated for each compound dilution and the concentration that produced 50% inhibition was calculated.

[1] = rats, treatment for longer than 7 days; cited from earlier work
[2] = mice, even at higher doses; cited from earlier work
[3] = dogs, even at higher doses; cited from earlier work
[4] = formulations containing GDC-0853; cited from earlier work

human recombinant WT BTK, sequence (Q06187 whole entry): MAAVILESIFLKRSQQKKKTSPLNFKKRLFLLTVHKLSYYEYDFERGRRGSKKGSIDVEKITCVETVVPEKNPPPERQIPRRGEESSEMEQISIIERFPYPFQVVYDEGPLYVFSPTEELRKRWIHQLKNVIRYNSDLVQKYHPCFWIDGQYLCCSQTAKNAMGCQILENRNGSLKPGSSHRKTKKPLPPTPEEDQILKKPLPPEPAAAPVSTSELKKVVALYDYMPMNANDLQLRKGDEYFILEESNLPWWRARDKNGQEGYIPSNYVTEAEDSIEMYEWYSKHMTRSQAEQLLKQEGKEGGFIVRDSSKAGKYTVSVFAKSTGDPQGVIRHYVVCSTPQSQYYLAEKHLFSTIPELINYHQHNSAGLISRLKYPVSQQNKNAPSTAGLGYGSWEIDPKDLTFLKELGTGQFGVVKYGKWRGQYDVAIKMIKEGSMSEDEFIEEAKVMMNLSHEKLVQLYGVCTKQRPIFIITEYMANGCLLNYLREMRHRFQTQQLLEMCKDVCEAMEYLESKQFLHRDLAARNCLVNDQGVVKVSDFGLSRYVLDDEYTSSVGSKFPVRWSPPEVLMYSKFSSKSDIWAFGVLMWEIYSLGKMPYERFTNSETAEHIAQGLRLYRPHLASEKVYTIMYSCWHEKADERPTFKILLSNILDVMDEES

Structure (SMILES)	IC50 (human recombinant WT BTK) [nM]	pancreatic toxicity [1]	pancreatic toxicity [2]	pancreatic toxicity [3]	tolerability in Phase I clinical trials [4]
C=CC(=O)Nc1cc(Nc2nc(-c3ccnc(NC(=O)c4ccc(C(C)(C)C)cc4)c3CO)cn(C)c2=O)ccc1N1CCN(C2CCOCC2)C[C@@H]1C [Example 1, 4-tert-butyl-N-[3-(hydroxymethyl)-4-[4-methyl-6-([4-[(2S)-2-methyl-4-(oxan-4-yl)piperazin-1-yl]-3-(prop-2-enamido)phenyl]amino)-5-oxopyrazin-2-yl]pyridin-2-yl]benzamide]	0.64				
C[C@H]1CN(C2COC2)CCN1c1ccc(Nc2cc(-c3ccnc(N4CCn5c(cc6c5CC(C)(C)C6)C4=O)c3CO)cn(C)c2=O)nc1 [GDC-0853]		leads to pancreatic toxicity	does not occur	does not occur	well-tolerated

Reference: patent US20230382900A1, “INHIBITORS OF BTK” (Newave Pharmaceutical Inc., priority 2020, published 2023)
